Consider 13 molecules from patent publication US8168592B2 (Amgen Inc., priority 2005, dated 2012).

Where two headings read alike, the source gives them in different places. Square brackets hold non-standard residues; d marks the D form. Peptide text beside a SMILES is read from it. 1Nal = N[C@@H](Cc1cccc2ccccc12)C(=O)O; hArg = N=C(N)NCCCC[C@H](N)C(=O)O; Cit = NC(=O)NCCC[C@H](N)C(=O)O; Phg = N[C@H](C(=O)O)c1ccccc1

The target in data set [1] is T1, CGRP1 receptor (human neuroblastoma cell (SK-N-MC) membrane) (Homo sapiens, UniProt O60894+Q16602).
T1 construct: human neuroblastoma cell (SK-N-MC) membrane suspension; purchased PerkinElmer; host or cells: SK-N-MC human neuroblastoma cell membranes (endogenous receptor)
T1 sequence (Q16602 23-461): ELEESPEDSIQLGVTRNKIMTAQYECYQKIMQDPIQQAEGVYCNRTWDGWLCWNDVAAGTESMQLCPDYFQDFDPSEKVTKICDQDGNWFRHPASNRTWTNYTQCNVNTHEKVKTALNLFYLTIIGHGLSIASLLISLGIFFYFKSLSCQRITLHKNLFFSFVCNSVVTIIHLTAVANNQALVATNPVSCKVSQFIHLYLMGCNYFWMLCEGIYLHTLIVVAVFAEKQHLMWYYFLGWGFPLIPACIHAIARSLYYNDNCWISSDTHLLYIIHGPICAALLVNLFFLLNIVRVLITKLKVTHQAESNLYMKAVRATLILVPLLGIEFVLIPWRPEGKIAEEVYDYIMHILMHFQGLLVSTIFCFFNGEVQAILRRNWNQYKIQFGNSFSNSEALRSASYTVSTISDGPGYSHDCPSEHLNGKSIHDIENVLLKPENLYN
T1 sequence (O60894 27-148): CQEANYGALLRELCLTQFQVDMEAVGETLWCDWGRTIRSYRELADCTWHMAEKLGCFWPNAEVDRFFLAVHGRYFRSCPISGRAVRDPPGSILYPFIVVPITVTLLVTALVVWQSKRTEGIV
Kind of data set: CGRP1 binding assay (125I-hαCGRP displacement). Here is the method:
CGRP1 binding experiments. […] The plates were incubated at room temperature for 2 hour with shaking at 60 rpm, then the contents of each well were filtered over 0.5% polyethyleneimine (PEI)-treated (at least one hour) GF/C 96-well filter plates. The GF/C filter plates were washed 6 times with ice-cold 50 mM Tris, pH 7.5 and dried in an oven at 55 C for 1 hour. The bottoms of the GF/C plates were then sealed, and 40 μl Microscint™ 20 was added to each well, then the tops of the GF/C plates were sealed with TopSeal™-A, a press-on adhesive sealing film, and the GF/C plates were counted with TopCount NXT (Packard). The data were analyzed by using ActivityBase (IDBS) or Prizm (GraphPad) software.

Data set [2] concerns the target T2, CGRP1 receptor (Homo sapiens, UniProt O60894+Q16602).
T2 construct: SK-N-MC cells express CRLR and RAMP1, which form CGRP1 receptor; endogenous in cells; host or cells: SK-N-MC human neuroblastoma cells
Put plainly: in vitro CGRP1 receptor mediated cAMP assay in SK-N-MC cells. The class given is cell-based. The following applies: read-out: IC50. Put shortly:
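Intracellular cAMP served as the Gs-coupled CGRP1 readout in endogenously expressing SK-N-MC cells. After a 15-minute room-temperature step in plasma-free medium, cell lysates (30 minutes, 37° C) went into a competitive ELISA with a cAMP-AP conjugate and anti-cAMP antibody for 1 hour, then a 30-minute substrate enhancer step before reading.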
(Cyclic AMP is a second messenger, typically raised through Gs and lowered through Gi signalling.)

The nature of data set [3]: monkey pharmacokinetic studies. The settings on record: cynomolgus monkey, in vivo, iv, 6 mg/kg.
Experimental: Monkey pharmacokinetic studies. […] A complete blood chemistry panel was performed on each monkey prior to each study day to obtain baseline values and ensure hematological recovery. A catheter was placed in the cephalic vein of three male Cynomolgus monkeys (Macaca fascicularis) for blood sampling during the study. For the intravenous (iv) leg of the study, a catheter was also placed in a saphenous vein for infusion of test compound. On each study day, the monkeys were placed in restraining chairs for the first 4 h of the study to facilitate drug administration and blood sampling. For administration of antagonist, each monkey received solubilized peptide (dose and SEQ ID listed in Table 11 below) either as a 30-min intravenous infusion (4 mL/kg/h) or as a single subcutaneous bolus (approx. 1.0 mL/animal). Blood samples were collected from each study animal at various times during and after drug administration, plasma samples (100 μL) were isolated by centrifugation and stored at −70° C. until analysis. For monkeys receiving intravenous infusion, such a sample was also taken at 20 min during the infusion.
A short description of data set [4]: in vitro stability in 10% human plasma, LC-MS/MS. The settings on record: room temperature, 100 ng/ml. The class given is in vitro ADME. Here is the method: Consequently, the stability of select, non-PEGylated analogs was evaluated in vitro in the presence of 10% rat or human plasma. Briefly, samples of each peptide were diluted to 100 ng/ml into PBS containing 10% of rat or human plasma. Each sample was then incubated at room temperature and analyzed by LC-MS/MS to quantitate the intact peptide remaining at select time points over 6 hours.

The nature of data set [5]: in vitro stability in 5% mouse plasma, sandwich ELISA. In general terms: An ELISA detects its analyte on a solid surface through an enzyme-linked reagent.
Experimental: Peptide samples at 2 mg/ml in PBS were spiked with 5% mouse plasma and analyzed by sandwich ELISA (as described in Example 3 herein above) over 48 hours at room temperature. Peptide integrity was determined by sandwich ELISA requiring intact peptide termini.

T2 sequence (Q16602 23-461): as the sequence (Q16602 23-461) above
T2 sequence (O60894 27-148): as the sequence (O60894 27-148) above

As to “Ac-WVTHRLAGLLSRSGGVVKNNFVPTDVGPFAF-NH2 [compound 5]”, the affinity in data set [1] (Table 3B), expressed as Ki, was 0.06 nM. Also, the IC50 (in general, the concentration at which inhibition is half-maximal) in data set [2] (Table 3, unconjugated CGRP peptide analogs, n = 2-4) came out at 0.14 nM; in data set [2] (Table 4, 20 k PEG-conjugated vs unconjugated peptides, n = 2-4), 0.14 nM.
As to `CC(=O)N[C@@H](Cc1c[nH]c2ccccc12)C(=O)N[C@H](C(=O)N[C@H](C(=O)N[C@@H](Cc1c[nH]cn1)C(=O)N[C@@H](CCCNC(N)=O)C(=O)N[C@@H](CC(C)C)C(=O)N[C@@H](C)C(=O)NCC(=O)N[C@@H](CC(C)C)C(=O)N[C@@H](CC(C)C)C(=O)N[C@@H](CO)C(=O)N[C@@H](CCCNC(N)=O)C(=O)N[C@@H](CO)C(=O)NCC(=O)NCC(=O)N[C@H](C(=O)N[C@H](C(=O)N[C@@H](CCCCNC(=N)N)C(=O)N[C@@H](CCCCN)C(=O)N[C@@H](CC(N)=O)C(=O)N[C@@H](Cc1ccccc1)C(=O)N[C@H](C(=O)N1CCC[C@H]1C(=O)N[C@H](C(=O)N[C@@H](CC(=O)O)C(=O)N[C@H](C(=O)NCC(=O)N1[C@H](C(=O)N[C@@H](Cc2ccccc2)C(=O)N[C@@H](C)C(=O)N[C@@H](Cc2ccccc2)C(N)=O)C[C@@H]2CCCC[C@@H]21)C(C)C)[C@@H](C)O)C(C)C)C(C)C)C(C)C)[C@@H](C)O)C(C)C` [SEQ ID NO: 658], in data set [3], the AUC0-inf came to 17000 ng·h/mL; the AUC0-t came to 16900 ng·h/mL; the MRT (commonly the average time that molecules of a dose stay in the body) turned out to be 25.2 min; the Vd (as a rule, the apparent volume that relates the amount in the body to the concentration in plasma or blood) is 0.174 L/kg. Besides, in data set [3], the clearance – broadly, a measure of how efficiently the substance is removed, as volume per time – was 6.65 mL/min/kg and the half-life (usually how long it takes for the measured level to halve) was 48 min.
With `CC(=O)N[C@@H](Cc1c[nH]c2ccccc12)C(=O)N[C@H](C(=O)N[C@H](C(=O)N[C@@H](Cc1c[nH]cn1)C(=O)N[C@@H](CCCNC(N)=O)C(=O)N[C@@H](CC(C)C)C(=O)N[C@@H](C)C(=O)NCC(=O)N[C@@H](CC(C)C)C(=O)N[C@@H](CC(C)C)C(=O)N[C@@H](CO)C(=O)N[C@@H](CCCNC(N)=O)C(=O)N[C@@H](CO)C(=O)NCC(=O)NCC(=O)N[C@H](C(=O)N[C@H](C(=O)N[C@@H](CCCCNC(=N)N)C(=O)N[C@@H](CCCCN)C(=O)N[C@@H](CC(N)=O)C(=O)N[C@@H](Cc1ccccc1)C(=O)N[C@H](C(=O)N1CCC[C@H]1C(=O)N[C@H](C(=O)N[C@@H](CC(=O)O)C(=O)N[C@H](C(=O)NCC(=O)N1CCC[C@H]1C(=O)N[C@@H](Cc1cccc2ccccc12)C(=O)N[C@@H](C)C(=O)N[C@@H](Cc1ccccc1)C(N)=O)C(C)C)[C@@H](C)O)C(C)C)C(C)C)C(C)C)[C@@H](C)O)C(C)C` [compound 674] (Ac-WVTH[Cit]LAGLLS[Cit]SGGVV[hArg]KNFVPTDVGP[1Nal]AF-NH2), the Ki (commonly the dissociation constant of the complex between target and ligand, obtained from inhibition or displacement) in data set [1] (Table 3A) came to 0.64 nM. Further, the IC50 in data set [2] (Table 2A) fell in the range of 1.31 to 1.51 nM.
Molecule `CC(=O)N[C@@H](Cc1c[nH]c2ccccc12)C(=O)N[C@H](C(=O)N[C@H](C(=O)N[C@@H](Cc1cnc[nH]1)C(=O)N[C@@H](CCCNC(N)=O)C(=O)N[C@@H](CC(C)C)C(=O)N[C@@H](C)C(=O)NCC(=O)N[C@@H](CC(C)C)C(=O)N[C@@H](CC(C)C)C(=O)N[C@@H](CO)C(=O)N[C@@H](CCCNC(N)=O)C(=O)N[C@@H](CO)C(=O)NCC(=O)NCC(=O)N[C@H](C(=O)N[C@H](C(=O)N[C@@H](CCCCNC(=N)N)C(=O)N[C@@H](CCCCN)C(=O)N[C@@H](CC(N)=O)C(=O)N[C@@H](Cc1ccccc1)C(=O)N[C@H](C(=O)N1CCC[C@H]1C(=O)N[C@H](C(=O)N[C@@H](CC(=O)O)C(=O)N[C@H](C(=O)NCC(=O)N1CCC[C@H]1C(=O)N[C@@H](Cc1ccccc1)C(=O)N[C@@H](C)C(=O)N[C@@H](Cc1ccccc1)C(N)=O)C(C)C)[C@@H](C)O)C(C)C)C(C)C)C(C)C)[C@@H](C)O)C(C)C` [compound 739] displayed a Ki in data set [1] (Table 3A) of 0.53 nM.
Regarding H-FVPTDVAPFAF-NH2 [compound 717], in data set [1] (Table 3B), the Ki is > 1000 nM.
Take “Ac-WVTHRLAGLLSRSGGVVRCNFVPTDVGPFAF-NH2 [compound 680]”: the Ki in data set [1] (Table 3B) turned out to be 0.58 nM.
On the same count and under the same terms, for `CC(C)[C@H](NC(=O)[C@H](CC(=O)O)NC(=O)[C@@H](NC(=O)[C@@H]1CCCN1C(=O)[C@@H](NC(=O)[C@@H](N)Cc1ccccc1)C(C)C)[C@@H](C)O)C(=O)NCC(=O)N1CCC[C@H]1C(=O)N[C@@H](Cc1ccccc1)C(=O)N[C@@H](C)C(=O)N[C@H](Cc1ccccc1)C(N)=O` [compound 720] the value was > 1000 nM; for `CC(C)C[C@H](NC(=O)CNC(=O)[C@H](C)NC(=O)[C@H](CC(C)C)NC(=O)[C@H](CCCNC(=N)N)NC(=O)[C@H](Cc1c[nH]cn1)NC(=O)[C@@H](NC(=O)[C@@H](NC(=O)[C@H](CO)NC(=O)[C@@H](NC(=O)[C@H](C)NC(=O)[C@@H](NC(=O)[C@H](CC(=O)O)NC(=O)[C@H](CO)NC(=O)[C@H](C)N)[C@@H](C)O)[C@@H](C)O)C(C)C)[C@@H](C)O)C(=O)N[C@@H](CC(C)C)C(=O)N[C@@H](CO)C(=O)N[C@@H](CCCNC(=N)N)C(=O)N[C@@H](CO)C(=O)NCC(=O)NCC(=O)N[C@H](C(=O)N[C@H](C(=O)N[C@@H](CCCCN)C(=O)N[C@@H](CC(N)=O)C(=O)N[C@@H](CC(N)=O)C(=O)N[C@@H](Cc1ccccc1)C(=O)N[C@H](C(=O)N1CCC[C@H]1C(=O)N[C@H](C(=O)N[C@@H](CC(N)=O)C(=O)N[C@H](C(=O)NCC(=O)N[C@@H](CO)C(=O)N[C@@H](CCCCN)C(=O)N[C@@H](C)C(=O)N[C@@H](Cc1ccccc1)C(N)=O)C(C)C)[C@@H](C)O)C(C)C)C(C)C)C(C)C` [compound 709], 12 nM.
Take “686 (Ac-WVTHRLAGLLSRSGGVVK(20 kDa PEG)NNFVPTDVGPFAF-NH2) [compound 686]”: in data set [1] (Table 3B), the affinity, expressed as Ki, was 1.33 nM.
“Ac-WVTHRLAGLLSRSGGVVKNNFVPTDVGPFAF-NH2 [compound 684]” registered a Ki in data set [1] (Table 3B) of 0.08 nM.
As for `CC(C)[C@H](NC(=O)[C@@H](CC(=O)O)NC(=O)[C@@H](NC(=O)[C@@H]1CCCN1C(=O)[C@@H](NC(=O)[C@@H](N)Cc1ccccc1)C(C)C)[C@@H](C)O)C(=O)NCC(=O)N1CCC[C@H]1C(=O)N[C@@H](Cc1ccccc1)C(=O)N[C@@H](C)C(=O)N[C@@H](Cc1ccccc1)C(N)=O` [compound 719], the Ki in data set [1] (Table 3B) was > 1000 nM.
For the molecule `CC(C)C[C@H](NC(=O)CNC(=O)[C@H](C)NC(=O)[C@H](CC(C)C)NC(=O)[C@H](CCCNC(=N)N)NC(=O)[C@H](Cc1c[nH]cn1)NC(=O)[C@@H](NC(=O)[C@@H](NC(=O)[C@@H](N)c1ccccc1)C(C)C)[C@@H](C)O)C(=O)N[C@@H](CC(C)C)C(=O)N[C@@H](CO)C(=O)N[C@@H](CCCNC(=N)N)C(=O)N[C@@H](CO)C(=O)NCC(=O)NCC(=O)N[C@H](C(=O)N[C@H](C(=O)N[C@@H](CCCCN)C(=O)N[C@@H](CC(N)=O)C(=O)N[C@@H](CC(N)=O)C(=O)N[C@@H](Cc1ccccc1)C(=O)N[C@H](C(=O)N1CCC[C@H]1C(=O)N[C@H](C(=O)N[C@@H](CC(=O)O)C(=O)N[C@H](C(=O)NCC(=O)N1CCC[C@H]1C(=O)N[C@@H](Cc1ccccc1)C(=O)N[C@@H](C)C(=O)N[C@@H](Cc1ccccc1)C(N)=O)C(C)C)[C@@H](C)O)C(C)C)C(C)C)C(C)C` [compound 703] (H-[Phg]VTHRLAGLLSRSGGVVKNNFVPTDVGPFAF-NH2), the Ki in data set [1] (Table 3B) turned out to be 0.19 nM.
With `CC(=O)N[C@@H](Cc1c[nH]c2ccccc12)C(=O)N[C@H](C(=O)N[C@H](C(=O)N[C@@H](Cc1cnc[nH]1)C(=O)N[C@@H](CCCN=C(N)N)C(=O)N[C@@H](CC(C)C)C(=O)N[C@@H](C)C(=O)NCC(=O)N[C@@H](CC(C)C)C(=O)N[C@@H](CC(C)C)C(=O)N[C@@H](CO)C(=O)N[C@@H](CCCN=C(N)N)C(=O)N[C@@H](CO)C(=O)NCC(=O)NCC(=O)N[C@H](C(=O)N[C@H](C(=O)N[C@@H](CCCN=C(N)N)C(=O)N[C@@H](CCCCN)C(=O)N[C@@H](CC(N)=O)C(=O)N[C@@H](Cc1ccccc1)C(=O)N[C@H](C(=O)N1CCC[C@H]1C(=O)N[C@H](C(=O)N[C@@H](CC(=O)O)C(=O)N[C@H](C(=O)NCC(=O)N1CCC[C@H]1C(=O)N[C@@H](Cc1ccccc1)C(=O)N[C@@H](C)C(=O)N[C@@H](Cc1ccccc1)C(N)=O)C(C)C)[C@@H](C)O)C(C)C)C(C)C)C(C)C)[C@@H](C)O)C(C)C` [SEQ ID NO: 7], the “% Remaining” value in data set [4] (0 h) is reported as 100.0%. Also, in data set [4] (0.17 h), the fraction remaining (usually what is left of the initial amount, in per cent) at 0.17 h, 100 ng/ml was found to be 60.3%. In data set [4] (0.5 h), the amount remaining at 0.5 h, 100 ng/ml is 13.8%. In data set [4] (1 h), this molecule displayed an amount remaining at 1 h, 100 ng/ml of 4.9%. For the same molecule, in data set [4] (2 h), the share remaining at 2 h, 100 ng/ml was 0%. This molecule also yielded a fraction remaining at 3 h, 100 ng/ml in data set [4] (3 h) of 0%. In addition, in data set [4] (4 h), the fraction remaining at 4 h, 100 ng/ml came to 0%. This molecule also yielded an amount remaining at 5 h, 100 ng/ml in data set [4] (5 h) of 0%. The molecule further gave a share remaining at 6 h, 100 ng/ml in data set [4] (6 h) of 0%. Further, in data set [5], the recovery at 0 h, 2 mg/ml was 112 ± 1.8%; the recovery at 4 h, 2 mg/ml came to 46.1 ± 60.1%; the recovery at 24 h, 2 mg/ml amounted to 2.51 ± 0.573%; the recovery at 48 h, 2 mg/ml was found to be 1.81 ± 0.754%.
